# Measurements: the supplement of paper PMC10307832
# Tests used:
# Experiment in all cases: relative viability (nuclei count vs DMSO), 5 days (fraction); higher = more cells survive
# [1] = system: NCI-H1792
# Summary of the method: (§1)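 Dosing by pin tool came one day after lung cancer cell lines were seeded in 1536-well plates, using either one drug or a fixed anchor-drug dose plus five library-drug doses (not always all listed) in √10 steps. After 5 days, nuclei were counted on 4× images. Relative viability is treated-well nuclei count divided by vehicle-well nuclei count, and values are medians of duplicate plates.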
# [2] = system: H3255
# Summary of the method: as §1
# [3] = system: LC-2-ad
# Summary of the method: as §1
# [4] = system: NCI-H2126
# Summary of the method: as §1
# [5] = system: NCI-H441
# Summary of the method: as §1
# [6] = system: SK-LU-1
# Summary of the method: as §1
# [7] = system: NCI-H460
# Summary of the method: as §1
# [8] = system: NCI-H1793
# Summary of the method: as §1
# [9] = system: EKVX
# Summary of the method: as §1
# [10] = system: EMC-BAC-2
# Summary of the method: as §1
# [11] = system: PC-3 [JPC-3]
# Summary of the method: as §1
# [12] = system: HARA
# Summary of the method: as §1
# [13] = system: NCI-H1915
# Summary of the method: as §1
# [14] = system: NCI-H1437
# Summary of the method: as §1
# [15] = system: HCC-15
# Summary of the method: as §1
# [16] = system: LU99A
# Summary of the method: as §1
# [17] = system: LCLC-97TM1
# Summary of the method: as §1
# [18] = system: NCI-H322M
# Summary of the method: as §1
# [19] = system: NCI-H1944
# Summary of the method: as §1
# [20] = system: NCI-H661
# Summary of the method: as §1
# [21] = system: NCI-H23
# Summary of the method: as §1
# [22] = system: ChaGo-K-1
# Summary of the method: as §1
# [23] = system: HCC-827
# Summary of the method: as §1
smiles,measurement,setting,value
O=c1[nH]c2ccccc2n1C1CCN(CCCC(c2ccc(F)cc2)c2ccc(F)cc2)CC1 [Pimozide] + CC(=O)c1c(C)c2cnc(Nc3ccc(N4CCNCC4)cn3)nc2n(C2CCCC2)c1=O [Palbociclib] (partner 0.5 µM),relative viability,[1]; first compound 0.08 µM,0.665
same,relative viability,[1]; first compound 0.253 µM,0.635
same,relative viability,[1]; first compound 0.8 µM,0.625
same,relative viability,[1]; first compound 2.53 µM,0.589
same,relative viability,[1]; first compound 8 µM,0.52
same,relative viability,[2]; first compound 0.253 µM,0.312
same,relative viability,[2]; first compound 0.8 µM,0.299
same,relative viability,[2]; first compound 2.53 µM,0.307
same,relative viability,[2]; first compound 8 µM,0.312
same,relative viability,[3]; first compound 0.08 µM,0.517
same,relative viability,[3]; first compound 0.253 µM,0.474
same,relative viability,[3]; first compound 0.8 µM,0.475
same,relative viability,[3]; first compound 2.53 µM,0.472
same,relative viability,[3]; first compound 8 µM,0.482
same,relative viability,[4]; first compound 0.08 µM,0.373
same,relative viability,[4]; first compound 0.253 µM,0.321
same,relative viability,[4]; first compound 0.8 µM,0.369
same,relative viability,[4]; first compound 2.53 µM,0.363
same,relative viability,[4]; first compound 8 µM,0.365
same,relative viability,[5]; first compound 0.08 µM,0.273
same,relative viability,[5]; first compound 0.253 µM,0.252
same,relative viability,[5]; first compound 0.8 µM,0.162
same,relative viability,[5]; first compound 2.53 µM,0.218
same,relative viability,[5]; first compound 8 µM,0.208
same,relative viability,[6]; first compound 0.08 µM,0.384
same,relative viability,[6]; first compound 0.253 µM,0.533
same,relative viability,[6]; first compound 0.8 µM,0.404
same,relative viability,[6]; first compound 2.53 µM,0.377
same,relative viability,[6]; first compound 8 µM,0.348
same,relative viability,[7]; first compound 0.08 µM,0.137
same,relative viability,[7]; first compound 0.253 µM,0.188
same,relative viability,[7]; first compound 0.8 µM,0.139
same,relative viability,[7]; first compound 2.53 µM,0.221
same,relative viability,[7]; first compound 8 µM,0.184
same,relative viability,[8]; first compound 0.08 µM,0.263
same,relative viability,[8]; first compound 0.253 µM,0.289
same,relative viability,[8]; first compound 0.8 µM,0.306
same,relative viability,[8]; first compound 2.53 µM,0.285
same,relative viability,[8]; first compound 8 µM,0.339
same,relative viability,[9]; first compound 0.253 µM,0.4
same,relative viability,[9]; first compound 0.8 µM,0.343
same,relative viability,[9]; first compound 2.53 µM,0.387
same,relative viability,[9]; first compound 8 µM,0.37
same,relative viability,[10]; first compound 0.08 µM,0.517
same,relative viability,[10]; first compound 0.253 µM,0.505
same,relative viability,[10]; first compound 0.8 µM,0.511
same,relative viability,[10]; first compound 2.53 µM,0.506
same,relative viability,[10]; first compound 8 µM,0.495
same,relative viability,[11]; first compound 0.253 µM,0.551
same,relative viability,[11]; first compound 0.8 µM,0.481
same,relative viability,[11]; first compound 2.53 µM,0.544
same,relative viability,[11]; first compound 8 µM,0.509
same,relative viability,[12]; first compound 0.08 µM,0.278
same,relative viability,[12]; first compound 0.253 µM,0.263
same,relative viability,[12]; first compound 0.8 µM,0.22
same,relative viability,[12]; first compound 2.53 µM,0.255
same,relative viability,[12]; first compound 8 µM,0.178
same,relative viability,[13]; first compound 0.08 µM,0.435
same,relative viability,[13]; first compound 0.253 µM,0.498
same,relative viability,[13]; first compound 2.53 µM,0.501
same,relative viability,[13]; first compound 8 µM,0.477
same,relative viability,[14]; first compound 0.08 µM,0.338
same,relative viability,[14]; first compound 0.253 µM,0.328
same,relative viability,[14]; first compound 0.8 µM,0.25
same,relative viability,[14]; first compound 2.53 µM,0.256
same,relative viability,[14]; first compound 8 µM,0.265
same,relative viability,[15]; first compound 0.08 µM,0.747
same,relative viability,[15]; first compound 0.253 µM,0.641
same,relative viability,[15]; first compound 0.8 µM,0.673
same,relative viability,[15]; first compound 2.53 µM,0.652
same,relative viability,[15]; first compound 8 µM,0.653
same,relative viability,[16]; first compound 0.08 µM,0.407
same,relative viability,[16]; first compound 0.8 µM,0.388
same,relative viability,[16]; first compound 2.53 µM,0.421
same,relative viability,[16]; first compound 8 µM,0.41
same,relative viability,[17]; first compound 0.08 µM,0.203
same,relative viability,[17]; first compound 0.253 µM,0.237
same,relative viability,[17]; first compound 0.8 µM,0.203
same,relative viability,[17]; first compound 2.53 µM,0.167
same,relative viability,[17]; first compound 8 µM,0.251
same,relative viability,[18]; first compound 0.08 µM,0.416
same,relative viability,[18]; first compound 0.253 µM,0.475
same,relative viability,[18]; first compound 0.8 µM,0.483
same,relative viability,[18]; first compound 2.53 µM,0.492
same,relative viability,[18]; first compound 8 µM,0.505
same,relative viability,[19]; first compound 0.08 µM,0.333
same,relative viability,[19]; first compound 2.53 µM,0.253
same,relative viability,[19]; first compound 8 µM,0.334
same,relative viability,[20]; first compound 0.08 µM,0.4
same,relative viability,[20]; first compound 0.253 µM,0.412
same,relative viability,[20]; first compound 0.8 µM,0.367
same,relative viability,[20]; first compound 2.53 µM,0.395
same,relative viability,[20]; first compound 8 µM,0.327
same,relative viability,[21]; first compound 0.08 µM,0.454
same,relative viability,[21]; first compound 0.253 µM,0.525
same,relative viability,[21]; first compound 0.8 µM,0.435
same,relative viability,[21]; first compound 2.53 µM,0.445
same,relative viability,[21]; first compound 8 µM,0.553
same,relative viability,[22]; first compound 0.08 µM,0.918
same,relative viability,[22]; first compound 0.253 µM,0.955
same,relative viability,[22]; first compound 0.8 µM,0.9
same,relative viability,[22]; first compound 2.53 µM,0.903
same,relative viability,[22]; first compound 8 µM,0.9
same,relative viability,[23]; first compound 0.253 µM,0.449
same,relative viability,[23]; first compound 0.8 µM,0.459
same,relative viability,[23]; first compound 2.53 µM,0.484
same,relative viability,[23]; first compound 8 µM,0.514
Cc1cnc(-c2cnc(NCCNc3ccc(C#N)cn3)nc2-c2ccc(Cl)cc2Cl)[nH]1 + COc1cccc2cc(-c3nc([C@H]4CC[C@H](C(=O)O)CC4)n4ncnc(N)c34)[nH]c12 [OSI-027] (partner 0.5 µM),relative viability,[1]; first compound 0.08 µM,0.866
same,relative viability,[1]; first compound 0.253 µM,0.715
same,relative viability,[1]; first compound 0.8 µM,0.618
same,relative viability,[1]; first compound 2.53 µM,0.666
same,relative viability,[2]; first compound 0.08 µM,0.745
same,relative viability,[2]; first compound 0.253 µM,0.535
same,relative viability,[2]; first compound 0.8 µM,0.616
same,relative viability,[2]; first compound 2.53 µM,0.592
same,relative viability,[3]; first compound 0.08 µM,0.886
same,relative viability,[3]; first compound 0.253 µM,0.713
same,relative viability,[3]; first compound 2.53 µM,0.962
same,relative viability,[4]; first compound 0.08 µM,0.704
same,relative viability,[4]; first compound 0.253 µM,0.622
same,relative viability,[4]; first compound 0.8 µM,0.64
same,relative viability,[4]; first compound 2.53 µM,0.776
same,relative viability,[5]; first compound 0.08 µM,0.739
same,relative viability,[5]; first compound 0.253 µM,0.664
same,relative viability,[5]; first compound 0.8 µM,0.453
same,relative viability,[5]; first compound 2.53 µM,0.459
same,relative viability,[6]; first compound 0.08 µM,0.344
same,relative viability,[6]; first compound 0.253 µM,0.336
same,relative viability,[6]; first compound 0.8 µM,0.35
same,relative viability,[6]; first compound 2.53 µM,0.463
same,relative viability,[7]; first compound 0.08 µM,0.749
same,relative viability,[7]; first compound 0.253 µM,0.582
same,relative viability,[7]; first compound 0.8 µM,0.675
same,relative viability,[7]; first compound 2.53 µM,0.669
same,relative viability,[8]; first compound 0.08 µM,0.322
same,relative viability,[8]; first compound 0.253 µM,0.276
same,relative viability,[8]; first compound 0.8 µM,0.191
same,relative viability,[8]; first compound 2.53 µM,0.279
same,relative viability,[9]; first compound 0.08 µM,0.768
same,relative viability,[9]; first compound 0.253 µM,0.706
same,relative viability,[9]; first compound 0.8 µM,0.589
same,relative viability,[9]; first compound 2.53 µM,0.624
same,relative viability,[10]; first compound 0.08 µM,0.407
same,relative viability,[10]; first compound 0.253 µM,0.37
same,relative viability,[10]; first compound 0.8 µM,0.341
same,relative viability,[10]; first compound 2.53 µM,0.447
same,relative viability,[11]; first compound 0.08 µM,0.831
same,relative viability,[11]; first compound 0.253 µM,0.757
same,relative viability,[11]; first compound 0.8 µM,0.692
same,relative viability,[11]; first compound 2.53 µM,0.742
same,relative viability,[12]; first compound 0.08 µM,0.554
same,relative viability,[12]; first compound 0.253 µM,0.376
same,relative viability,[12]; first compound 0.8 µM,0.469
same,relative viability,[12]; first compound 2.53 µM,0.562
same,relative viability,[13]; first compound 0.08 µM,0.715
same,relative viability,[13]; first compound 0.253 µM,0.586
same,relative viability,[13]; first compound 0.8 µM,0.658
same,relative viability,[13]; first compound 2.53 µM,0.812
same,relative viability,[14]; first compound 0.08 µM,0.896
same,relative viability,[14]; first compound 0.253 µM,0.88
same,relative viability,[14]; first compound 0.8 µM,0.916
same,relative viability,[14]; first compound 2.53 µM,0.976
same,relative viability,[15]; first compound 0.08 µM,0.707
same,relative viability,[15]; first compound 0.253 µM,0.665
same,relative viability,[15]; first compound 0.8 µM,0.512
same,relative viability,[15]; first compound 2.53 µM,0.786
same,relative viability,[16]; first compound 0.08 µM,0.291
same,relative viability,[16]; first compound 0.253 µM,0.304
same,relative viability,[16]; first compound 0.8 µM,0.327
same,relative viability,[16]; first compound 2.53 µM,0.401
same,relative viability,[17]; first compound 0.08 µM,0.648
same,relative viability,[17]; first compound 0.8 µM,0.646
same,relative viability,[17]; first compound 2.53 µM,0.688
same,relative viability,[18]; first compound 0.08 µM,0.641
same,relative viability,[18]; first compound 0.253 µM,0.658
same,relative viability,[18]; first compound 0.8 µM,0.45
same,relative viability,[18]; first compound 2.53 µM,1.3
same,relative viability,[19]; first compound 0.08 µM,0.422
same,relative viability,[19]; first compound 0.8 µM,0.489
same,relative viability,[19]; first compound 2.53 µM,0.685
same,relative viability,[20]; first compound 0.08 µM,0.77
same,relative viability,[20]; first compound 0.253 µM,0.667
same,relative viability,[20]; first compound 0.8 µM,0.743
same,relative viability,[20]; first compound 2.53 µM,0.802
same,relative viability,[21]; first compound 0.08 µM,0.592
same,relative viability,[21]; first compound 0.253 µM,0.539
same,relative viability,[21]; first compound 0.8 µM,0.58
same,relative viability,[21]; first compound 2.53 µM,0.678
same,relative viability,[22]; first compound 0.08 µM,0.608
same,relative viability,[22]; first compound 0.253 µM,0.442
same,relative viability,[22]; first compound 0.8 µM,0.623
same,relative viability,[22]; first compound 2.53 µM,0.592
same,relative viability,[23]; first compound 0.08 µM,0.903
same,relative viability,[23]; first compound 0.8 µM,0.814
same,relative viability,[23]; first compound 2.53 µM,0.759
